Experiment [1] deals with human lung cancer cell line A549. Kind of experiment: Tumor cell growth inhibition, SRB staining, A549. The settings on record: A549, 72 h. It is filed as cell-based. How it is done: The growth inhibition assay of tumor cells was detected by sulforhodamine B (SRB) staining method. The specific steps were as follows: inoculating human colon cancer cell line HCT116 and human lung cancer cell line A549 (purchased from American Type Culture Collection, ATCC) at the logarithmic growth phase into a 96-well micro culture plate at an appropriate concentration of 4000 cells/well, 100 μL for each well; after culturing overnight, adding with the compound at different concentrations (100, 10, 1, 0.1, 0.01 μM) to react for 72 h, wherein triplicate wells were set up for each concentration, and solvent control wells with the corresponding concentration and zero wells without cells were also set up. After the completion of the reaction, the culture medium was removed from the adherent cells, the later was added with 10% (w/v) trichloroacetic acid (100 μL/well) at 4° C. to fix for 1 h, and then washed five times with distilled water. After drying at room temperature, 100 μL of SRB solution (4 mg/mL, dissolved in 1% glacial acetic acid) was added into each well, followed by incubation and staining for 15 min at room temperature. The uncombined SRB was removed by washing five times with 1% glacial acetic acid. After drying at room temperature, 100 μL of 10 mM Tris solution was added into each well, and the optical density (OD) at 515 nm was measured by a […] microplate reader. The inhibition rate of the drug to tumor cell growth was calculated according to the following equation: Inhibition rate (%)=(OD of control well-OD of drug well)/OD of control well×100%. The experiment was repeated twice.
(In general: Sulforhodamine B stains cellular protein and so reports cell mass.)

In another experiment the target is HSP90α (Homo sapiens (Human), UniProt P07900). The experiment is described as follows: Fluorescence polarization (FP) HSP90-alpha target binding assay. The text has this: In the present invention, the method of fluorescence polarization (FP) was used to establish the screening platform for HSP90-alpha inhibitors. The principle based on is to calculate fluorescence polarization values in horizontal and vertical directions by detecting molecular weight changes before and after interaction of fluorescent labeled small molecules with other molecules, in use for correlation analysis. If binding equilibria between the fluorescent labeled small molecule and the macromolecule is established, it moves slowly when excited, and the fluorescence polarization values measured will increase. If the fluorescent labeled small molecule binding to the macromolecule is replaced with other ligands, its rotational or inversional speed in free state will become faster, the emitted light would be depolarized with respect to the exciting light plane, and thus the polarized light value measured will decrease, so as to calculate the polarization value of the sample (the unit of polarization value is mP).
The fluorescent labeled small molecule used in the present invention was VER-00051001 (synthesized by reference to the synthetic method described in JMC, 2008, 51, 196-218). The reaction was carried out in a 384-well black plate, using the reaction hydrophobic protein HFB buffer: 100 mM Tris.Cl pH 7.4, 20 mM KCl, 6 mM MgCl2, 5 μg/mL BSA, 25 nM full-length Hsp90U, 10 nM VER-51001. The volume of the reaction system was […], containing 5 nM GM-BODIPY (geldanamycin), 30 nM HSP90 and the test small molecular compound or DMSO (dimethyl sulfoxide), wherein the DMSO content was 2% o. Additional two group wells were established, wherein the wells only added with HFB buffer were used as blank controls, and the wells further added with 5 nM GM-BODIPY were used as negative controls. The reaction was carried out at 4° C. for 12-16 hours. The mP value was measured by Biotek microplate reader at 485 nm of excitation wavelength and 535 nm of emission wavelength. The inhibition rate was calculated using the following equation: (Compound-free mP−Compound mP)/(Compound-free mP−negative control mP)×100%

Setting [2] is: fluorescence polarization, read-out: Target binding ability HSP90α FP IC50.

SMILES strings stand for the structures. Read-outs that look alike come from different tables or passages of the source. A value given as a limit tells only on which side of the number the result lay.

`CCNC(=O)c1noc(-c2cc(C(C)C)c(O)cc2O)c1-c1ccc2c(c1)CCN(CC(=O)N(C)C)C2` [Example 55, 5-(2,4-dihydroxyl-5-isopropylphenyl)-4-(2-(2-(dimethylamino)-2-oxoethyl)-1,2,3,4-tetrahydroisoquinolin-6-yl)-N-ethylisoxazole-3-carboxamide]: the EC50 (usually the concentration at which the effect is half-maximal) in experiment [1] is more than 100 nM. Also, the IC50 (as a rule, the concentration at which inhibition is half-maximal) on HSP90α (setting [2]) lay in the range of 20 to 100 nM.
For `CCNC(=O)c1noc(-c2cc(C(C)C)c(O)cc2O)c1-c1ccc2c(c1)CCN(CCF)C2` [Example 46, 5-(2,4-dihydroxyl-5-isopropylphenyl)-N-ethyl-4-(2-(2-fluoroethyl)-1,2,3,4-tetrahydroisoquinolin-6-yl)isoxazole-3-carboxamide] the same measures were less than 20 nM and 20 to 100 nM.
As for `CC(C)NC(=O)c1onc(-c2cc(C(C)C)c(O)cc2O)c1-c1ccc2c(c1)CCN(C)C2` [Example 63, 3-(2,4-dihydroxyl-5-isopropylphenyl)-N-isopropyl-4-(2-methyl-1,2,3,4-tetrahydroisoquinolin-6-yl)isoxazole-5-carboxamide], in experiment [1], the EC50 was less than 20 nM. Besides, the IC50 at HSP90α (setting [2]) was less than 20 nM.
Consider `COCCNC(=O)c1noc(-c2cc(C(C)C)c(O)cc2O)c1-c1ccc2c(c1)CCN(C)C2` [Example 41, 5-(2,4-dihydroxyl-5-isopropylphenyl)-N-(2-methoxyethyl)-4-(2-methyl-1,2,3,4-tetrahydroisoquinolin-6-yl)isoxazole-3-carboxamide], for which, in experiment [1], the EC50 lay in the range of 20 to 100 nM. At HSP90α (setting [2]), the IC50 was less than 20 nM.
`CCNC(=O)c1noc(-c2cc(C(C)C)c(O)cc2O)c1-c1ccc2c(c1)CCN(CCCOC)C2` [Example 47, 5-(2,4-dihydroxyl-5-isopropylphenyl)-N-ethyl-4-(2-(3-methoxypropyl)-1,2,3,4-tetrahydroisoquinolin-6-yl)isoxazole-3-carboxamide]: in experiment [1], the half-maximal effective concentration (EC50) fell in the range of 20 to 100 nM. Also, on HSP90α (setting [2]), the half-maximal inhibitory concentration (IC50) was in the range of 20 to 100 nM.
`CCNC(=O)c1noc(-c2cc(C(C)C)c(O)cc2O)c1-c1ccc2c(c1)CCN(C(=O)CN1CCOCC1)C2` [Example 60, 5-(2,4-dihydroxyl-5-isopropylphenyl)-N-ethyl-4-(2-(2-morpholino-4-yl-acetyl)-1,2,3,4-tetrahydroisoquinolin-6-yl)isoxazole-3-carboxamide]: the concentration for a half-maximal effect (EC50) in experiment [1] was more than 100 nM. Moreover, the concentration for half-maximal inhibition (IC50) on HSP90α (setting [2]) fell in the range of 20 to 100 nM.
For `Cc1nnc(-c2noc(-c3cc(C(C)C)c(O)cc3O)c2-c2ccc3c(c2)CCN(C)C3)[nH]1` [Example 15, 4-isopropyl-6-[4-(2-methyl-1,2,3,4-tetrahydroisoquinolin-6-yl)-3-(5-methyl-4H-1,2,4-triazol-3-yl)isoxazol-5-yl]benzene-1,3-diol] the same measures were more than 100 nM and 20 to 100 nM.
`CNC(=O)c1noc(-c2cc(C(C)C)c(O)cc2O)c1-c1ccc2c(c1)CCN(C)C2` [Example 36, 5-(2,4-dihydroxyl-5-isopropylphenyl)-N-methyl-4-(2-methyl-1,2,3,4-tetrahydroisoquinolin-6-yl)isoxazole-3-carboxamide]: the half-maximal effective concentration (EC50) in experiment [1] was less than 20 nM. Moreover, the half-inhibitory concentration (IC50) at HSP90α (setting [2]) is less than 20 nM.
As to `CCNC(=O)c1onc(-c2cc(C(C)C)c(O)cc2O)c1-c1ccc2c(c1)CCN(CCOC)C2` [Example 70], the EC50 in experiment [1] lay in the range of 20 to 100 nM. Further, the IC50 at HSP90α (setting [2]) was less than 20 nM.
In the same order, the values of `CCNC(=O)c1noc(-c2cc(CC(C)C)c(O)cc2O)c1-c1ccc2c(c1)CCN(C)C2` [Example 33, 5-(5-isobutyl-2,4-dihydroxyl-phenyl)-N-ethyl-4-(2-methyl-1,2,3,4-tetrahydroisoquinolin-6-yl)isoxazole-3-carboxamide] are more than 100 nM and 20 to 100 nM.
For `CC(C)c1cc(-c2noc(C(N)=O)c2-c2ccc3c(c2)CCN(C)C3)c(O)cc1O` [Example 61, 3-(2,4-dihydroxyl-5-isopropylphenyl)-4-(2-methyl-1,2,3,4-tetrahydroisoquinolin-6-yl)isoxazol-5-carboxamide] the same measures were less than 20 nM and less than 20 nM.
For `CCNC(=O)c1onc(-c2cc(C(C)C)c(O)cc2O)c1-c1ccc2c(c1)CCN(C)C2` [Example 12, 3-(2,4-dihydroxyl-5-isopropylphenyl)-N-ethyl-4-(2-methyl-1,2,3,4-tetrahydroisoquinolin-6-yl)isoxazole-5-carboxamide] the same measures were less than 20 nM and less than 20 nM.
In experiment [1], `CC(C)NC(=O)c1noc(-c2cc(C(C)C)c(O)cc2O)c1-c1ccc2c(c1)CCN(C)C2` [Example 38, 5-(2,4-dihydroxyl-5-isopropylphenyl)-N-isopropyl-4-(2-methyl-1,2,3,4-tetrahydroisoquinolin-6-yl)isoxazole-3-carboxamide] yielded an EC50 of 20 to 100 nM. The half-maximal inhibitory concentration (IC50) on HSP90α (setting [2]) is 20 to 100 nM.
For `CCNC(=O)c1noc(-c2cc(Cl)c(O)cc2O)c1-c1ccc2c(c1)CCN(C)C2` [Example 31, 5-(2,4-dihydroxyl-5-chloro-phenyl)-N-ethyl-4-(2-methyl-1,2,3,4-tetrahydroisoquinolin-6-yl)isoxazole-3-carboxamide], the concentration for a half-maximal effect (EC50) in experiment [1] was more than 100 nM. Besides, on HSP90α (setting [2]), the IC50 is 20 to 100 nM.
On to `CCNC(=O)c1onc(-c2cc(C(C)C)c(O)cc2O)c1-c1ccc2c(c1)CCN(CCO)C2` [Example 69], for which the EC50 in experiment [1] is less than 20 nM. In addition, at HSP90α (setting [2]), the half-maximal inhibitory concentration (IC50) is less than 20 nM.
In turn, `CCNC(=O)c1noc(-c2cc(C(C)C)c(O)cc2O)c1-c1cc2c(s1)CCN(C)CC2` [Example 22, 5-(2,4-dihydroxyl-5-isopropylphenyl)-N-ethyl-4-(6-methyl-5,6,7,8-tetrahydro-4H-thieno[2,3-d]azepin-2-yl) isoxazole-3-carboxamide] displayed an EC50 in experiment [1] of 20 to 100 nM. Besides, the IC50 at HSP90α (setting [2]) was less than 20 nM.
In the same order, the values of `CCNC(=O)c1noc(-c2cc(Br)c(O)cc2O)c1-c1ccc2c(c1)CCN(C)C2` [Example 30, 5-(2,4-dihydroxyl-5-bromo-phenyl)-N-ethyl-4-(2-methyl-1,2,3,4-tetrahydroisoquinolin-6-yl)isoxazole-3-carboxamide] are more than 100 nM and 20 to 100 nM.
For `CCNC(=O)c1noc(-c2cc(C(C)C)c(O)cc2O)c1-c1ccc2c(c1)CCN(CCCNC(C)=O)C2` [Example 54] the same measures were more than 100 nM and 20 to 100 nM.
For `CCNC(=O)c1onc(-c2cc(C(C)C)c(O)cc2O)c1-c1ccc2c(c1)CCN(C)CC2` [Example 27, 3-(2,4-dihydroxyl-5-isopropylphenyl)-N-ethyl-4-(3-methyl-2,3,4,5-tetrahydro-1H-benzo[d]azepin-7-yl)isoxazole-5-carboxamide] the same measures were less than 20 nM and less than 20 nM.
In turn, `CC(C)c1cc(-c2onc(C(=O)NCCN(C)C)c2-c2ccc3c(c2)CCN(C)C3)c(O)cc1O` [Example 43, 5-(2,4-dihydroxyl-5-isopropylphenyl)-N-[2-(dimethylamino)ethyl]-4-(2-methyl-1,2,3,4-tetrahydroisoquinolin-6-yl)isoxazole-3-carboxamide] returned an EC50 in experiment [1] of more than 100 nM. Besides, at HSP90α (setting [2]), the IC50 lay within 20 to 100 nM.
For `CNC(=O)c1onc(-c2cc(C(C)C)c(O)cc2O)c1-c1ccc2c(c1)CCN(C)C2` [Example 62, 3-(2,4-dihydroxyl-5-isopropylphenyl)-N-methyl-4-(2-methyl-1,2,3,4-tetrahydroisoquinolin-6-yl)isoxazole-5-carboxamide] the same measures were less than 20 nM and less than 20 nM.
`CCNC(=O)c1noc(-c2cc(C(C)C)c(O)cc2O)c1-c1ccc2c(c1)C1CCC2N1C(C)C` (centres unmarked) [Example 7, 5-(2,4-dihydroxyl-5-isopropylphenyl)-N-ethyl-4-(9-isopropyl-1,2,3,4-tetrahydro-1,4-epiminonaphth-6-yl)isoxazole-3-carboxamide] registered a 50% effective concentration (EC50) in experiment [1] of less than 20 nM. The concentration for half-maximal inhibition (IC50) on HSP90α was in the range of 20 to 100 nM.

For the origin of these results see patent publication US10035792B2, “Resorcinol derivative as HSP90 inhibitor” (priority 2015, dated 2018).
